Assay results: patent US7547513B2, “Mutants of deoxycytidine kinase having extended enzymatic activity” (priority 2001, dated 2009)

Columns and labels:
Assay type in all cases: cell-based
[1] = system: Escherichia coli β7338 Δdeo tdk cdd::Tn10 pSUDCK4 (dck:D133E-R104Q); conditions: strain β7338, dck allele D133E R104Q; 18 h 37° C., MS medium + IPTG
Protocol: (§1) The culture was then diluted 100 times in the same medium supplemented with IPTG and distributed on 96-well microplates in a final volume of 100 μl in a series of dilutions from to 2 to 2 nucleotide analogues. Each analogue was tested twice. After incubation for 18 hours at 37° C. with stirring, the MIC was determined as corresponding to the lowest analogue concentration for which no turbidity was detectable.
(§2) The toxicity of nucleoside analogues, deviating either by the sugar or by the base, was evaluated in strains of genotype Δdeo tdk cdd expressing on a plasmid the different dckH alleles, wild-type allele, D133E, R104Q and double mutant.
(§3) The minimum inhibitory concentrations, expressed in microM, were determined as indicated in the section Materials and Methods.

[2] = system: Escherichia coli β7334 Δdeo tdk cdd::Tn10 pSUTrc (dck allele: none); conditions: strain β7334, dck allele none; 18 h 37° C., MS medium + IPTG
Protocol: as §1, §2, §3

[3] = system: Escherichia coli β7343 Δdeo tdk cdd::Tn10 (dckH D133E R104Q, amkG wt); assay: microbe, parasite or virus in culture; conditions: strain β7343, dckH D133E R104Q, amkG wt
Protocol: as §1
(§4) We jointly expressed, within the genetic context Δdeo tdk cdd each of the four alleles of dckH with each of the two wt and T39A alleles of amkG, and tested the toxicity of the different nucleoside analogues already tested previously (Table 4 below).
as §3

[4] = system: Escherichia coli β7341 Δdeo tdk cdd::Tn10 (dckH D133E, amkG wt); assay: microbe, parasite or virus in culture; conditions: strain β7341, dckH D133E, amkG wt
Protocol: as §1, §4, §3

[5] = system: Escherichia coli β7342 Δdeo tdk cdd::Tn10 (dckH R104Q, amkG wt); assay: microbe, parasite or virus in culture; conditions: strain β7342, dckH R104Q, amkG wt
Protocol: as §1, §4, §3

[6] = system: Escherichia coli β7346 Δdeo tdk cdd::Tn10 (dckH D133E, amkG T39A); assay: microbe, parasite or virus in culture; conditions: strain β7346, dckH D133E, amkG T39A
Protocol: as §1, §4, §3

[7] = system: Escherichia coli β7347 Δdeo tdk cdd::Tn10 (dckH R104Q, amkG T39A); assay: microbe, parasite or virus in culture; conditions: strain β7347, dckH R104Q, amkG T39A
Protocol: as §1, §4, §3

[8] = system: Escherichia coli β7340 Δdeo tdk cdd::Tn10 (dckH wt, amkG wt); assay: microbe, parasite or virus in culture; conditions: strain β7340, dckH wt, amkG wt
Protocol: as §1, §4, §3

[9] = system: Escherichia coli β7344 Δdeo tdk cdd::Tn10 (dckH none, amkG T39A); assay: microbe, parasite or virus in culture; conditions: strain β7344, dckH none, amkG T39A
Protocol: as §1, §4, §3

[10] = system: Escherichia coli β7345 Δdeo tdk cdd::Tn10 (dckH wt, amkG T39A); assay: microbe, parasite or virus in culture; conditions: strain β7345, dckH wt, amkG T39A
Protocol: as §1, §4, §3

[11] = system: Escherichia coli β7339 Δdeo tdk cdd::Tn10 (dckH none, amkG wt); assay: microbe, parasite or virus in culture; conditions: strain β7339, dckH none, amkG wt
Protocol: as §1, §4, §3

[12] = system: Escherichia coli β7348 Δdeo tdk cdd::Tn10 (dckH D133E R104Q, amkG T39A); assay: microbe, parasite or virus in culture; conditions: strain β7348, dckH D133E R104Q, amkG T39A
Protocol: as §1, §4, §3

[13] = system: Escherichia coli strains of genotype Δdeo tdk cdd expressing the different dckH alleles; assay: MIC toxicity in strains Δdeo tdk cdd expressing any dckH allele; conditions: whatever the DCK allele
Protocol: as §1, §2

[14] = system: Escherichia coli β7336 Δdeo tdk cdd::Tn10 pSUDCK2 (dck:D133E); conditions: strain β7336, dck allele D133E; 18 h 37° C., MS medium + IPTG
Protocol: (§5) The culture was then diluted 100 times in the same medium supplemented with IPTG and distributed on 96-well microplates in a final volume of 100 μl in a series of dilutions from to 2 to 2 nucleotide analogues. Each analogue was tested twice.
as §2, §3

[15] = system: Escherichia coli β7335 Δdeo tdk cdd::Tn10 pSUDCK1 (dck wt); conditions: DCK wt
Protocol: as §5, §2, §3

[16] = system: Escherichia coli β7337 Δdeo tdk cdd::Tn10 pSUDCK3 (dck:R104Q); conditions: strain β7337, dck allele R104Q; 18 h 37° C., MS medium + IPTG
Protocol: as §5, §2, §3

SMILES	minimum inhibitory concentration (MIC) [1] [µM]	minimum inhibitory concentration (MIC) [2]	minimum inhibitory concentration (MIC) [3]	minimum inhibitory concentration (MIC) [4]	minimum inhibitory concentration (MIC) [5]	minimum inhibitory concentration (MIC) [6]	minimum inhibitory concentration (MIC) [7]	minimum inhibitory concentration (MIC) [8]	minimum inhibitory concentration (MIC) [9]	minimum inhibitory concentration (MIC) [10]	minimum inhibitory concentration (MIC) [11]	minimum inhibitory concentration (MIC) [12]	MIC [13] [µM]	minimum inhibitory concentration (MIC) [14] [µM]	substrate of DCK wt (from toxicity tests of Table 3) [15]	minimum inhibitory concentration (MIC) [16] [µM]
Nc1ncn([C@H]2C[C@H](O)[C@@H](CO)O2)c(=O)n1 [5-aza-dC, 5-aza-2′-deoxycitidine]	1.25	> (no toxicity could be detected at the highest analogue concentration, 1.28 mM)	≦1.25 microM	≦1.25 microM	≦1.25 microM	≦1.25 microM	≦1.25 microM	≦1.25 microM	> (no toxicity could be detected at the highest analogue concentration, 1280 microM)	≦1.25 microM	> (no toxicity could be detected at the highest analogue concentration, 1280 microM)	≦1.25 microM	< 1.25			
Cc1cn([C@H]2C[C@H](N=[N+]=[N-])[C@@H](CO)O2)c(=O)[nH]c1=O [AZT, 3′-azido-3′dexoythymidine]	1280	> (no toxicity could be detected at the highest analogue concentration, 1.28 mM)	> (no toxicity could be detected at the highest analogue concentration, 1280 microM)	> (no toxicity could be detected at the highest analogue concentration, 1280 microM)	> (no toxicity could be detected at the highest analogue concentration, 1280 microM)		> (no toxicity could be detected at the highest analogue concentration, 1280 microM)	> (no toxicity could be detected at the highest analogue concentration, 1280 microM)	> (no toxicity could be detected at the highest analogue concentration, 1280 microM)	> (no toxicity could be detected at the highest analogue concentration, 1280 microM)	> (no toxicity could be detected at the highest analogue concentration, 1280 microM)	> (no toxicity could be detected at the highest analogue concentration, 1280 microM)		640	not a substrate	640
